{
  "source": "patent US20240190880A1",
  "about": "(THE REGENTS OF THE UNIVERSITY OF MICHIGAN, priority 2021, published 2024)",
  "data": [
    {"target": "T1, ER (Homo sapiens, UniProt P03372)", "T1 construct": "host or cells: T47D and MCF7 human breast cancer cells", "T1 sequence (P03372 1-595)": "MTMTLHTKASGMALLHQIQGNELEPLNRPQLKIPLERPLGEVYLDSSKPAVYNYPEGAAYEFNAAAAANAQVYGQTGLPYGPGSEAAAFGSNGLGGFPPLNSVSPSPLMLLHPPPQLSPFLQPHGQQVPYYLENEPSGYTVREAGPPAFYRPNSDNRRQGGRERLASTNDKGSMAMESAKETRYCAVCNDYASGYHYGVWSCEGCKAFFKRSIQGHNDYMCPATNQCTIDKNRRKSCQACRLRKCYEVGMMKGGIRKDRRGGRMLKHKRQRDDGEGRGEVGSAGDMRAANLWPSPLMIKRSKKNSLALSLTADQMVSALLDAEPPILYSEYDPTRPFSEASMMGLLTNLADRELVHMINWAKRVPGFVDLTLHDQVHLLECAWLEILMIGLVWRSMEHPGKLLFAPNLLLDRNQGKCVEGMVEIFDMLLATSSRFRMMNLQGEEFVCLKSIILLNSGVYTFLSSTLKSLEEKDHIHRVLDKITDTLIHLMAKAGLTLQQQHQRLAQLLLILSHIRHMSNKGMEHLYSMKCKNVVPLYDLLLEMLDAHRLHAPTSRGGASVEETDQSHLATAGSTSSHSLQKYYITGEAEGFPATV", "assay": "ER degradation activity, in-cell western blot analysis in T47D cells", "assay_type": "cell-based", "conditions": "16 hours, Table A does not say which cell line (T47D or MCF7), read-out: Potency (DC50)", "in_short": "(§1)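 T47D cells cultured in DMEM with 10% FBS, treated with compounds (final 0.5% DMSO) for 16 h. ER level measured by in-cell western with anti-rabbit-680/anti-mouse-800 near-infrared detection. Relative ER percentage calculated against untreated and DMSO-treated wells set as 100%.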", "units": {"DC50": "nM"}, "values": [
      {"molecule": "C[C@@H]1Cc2c([nH]c3ccccc23)[C@@H](c2c(F)cc(N3CCCC4(CN(C(=O)CN5Cc6cc7c(cc6C5)C(=O)N(C5CCC(=O)NC5=O)C7)C4)C3)cc2F)N1CC(F)F", "note": "(stereo partly drawn) [E 70, 3-(6-(2-(6-(4-((1R,3R)-2-(2,2-difluoroethyl)-3-methyl-2,3,4,9-tetrahydro-1H-pyrido[3,4-b]indol-1-yl)-3,5-difluorophenyl)-2,6-diazaspiro[3.5]nonan-2-yl)-2-oxoethyl)-1-oxo-3,5,6,7-tetrahydropyrrolo[3,4-f]isoindol-2(1H)-yl)piperidine-2,6-dione]", "DC50": "10 to 100"},
      {"molecule": "O=C1CCC(N2C(=O)c3cc4c(cc3C2=O)CN(C(=O)c2ccc(CC(=O)N3CCCC(Oc5ccc([C@@H]6c7ccc(O)cc7CC[C@@H]6c6ccccc6)cc5)C3)cc2)C4)C(=O)N1", "note": "(mixture of isomers) [E 24, Rac-2-(2,6-dioxopiperidin-3-yl)-6-(4-(2-(3-(4-((1R,2S)-6-hydroxy-2-phenyl-1,2,3,4-tetrahydronaphthalen-1-yl)phenoxy)piperidin-1-yl)-2-oxoethyl)benzoyl)-6,7-dihydropyrrolo[3,4-f]isoindole-1,3(2H,5H)-dione]", "DC50": "10 to 100"},
      {"molecule": "O=C1CCC(N2C(=O)c3cc4c(cc3C2=O)CN(Cc2ccc(N3CC(Oc5ccc([C@@H]6c7ccc(O)cc7CC[C@@H]6c6ccccc6)cc5)C3)nc2)C4)C(=O)N1", "note": "(stereo partly drawn) [E329, 2-(2,6-dioxopiperidin-3-yl)-6-((6-(3-(4-((1R,2S)-6-hydroxy-2-phenyl-1,2,3,4-tetrahydronaphthalen-1-yl)phenoxy)azetidin-1-yl)pyridin-3-yl)methyl)-6,7-dihydropyrrolo[3,4-f]isoindole-1,3(2H,5H)-dione]", "DC50": "10 to 100"},
      {"molecule": "C[C@@H]1Cc2c([nH]c3ccccc23)[C@@H](c2c(F)cc(N3CC[C@@H](CN4CCC(C(=O)N5Cc6cc7c(cc6C5)C(=O)N(C5CCC(=O)NC5=O)C7=O)CC4)C3)cc2F)N1CC(F)F", "note": "(stereo partly drawn) [E 91, 6-(1-(((S)-1-(4-((1R,3R)-2-(2,2-difluoroethyl)-3-methyl-2,3,4,9-tetrahydro-1H-pyrido[3,4-b]indol-1-yl)-3,5-difluorophenyl)pyrrolidin-3-yl)methyl)piperidine-4-carbonyl)-2-(2,6-dioxopiperidin-3-yl)-6,7-dihydropyrrolo[3,4-f]isoindole-1,3(2H,5H)-dione]", "DC50": "< 10"},
      {"molecule": "O=C1CCC(N2Cc3cc4c(cc3C2=O)CN(CC(=O)N2CCC3(CCN(c5ccc([C@@H]6c7ccc(O)cc7CC[C@@H]6c6ccccc6)cc5)CC3)C2)C4)C(=O)N1", "note": "(mixture of isomers) [E 4, rac-3-(6-(2-(8-(4-((1R,2S)-6-hydroxy-2-phenyl-1,2,3,4-tetrahydronaphthalen-1-yl)phenyl)-2,8-diazaspiro[4.5]decan-2-yl)-2-oxoethyl)-1-oxo-3,5,6,7-tetrahydropyrrolo[3,4-f]isoindol-2(1H)-yl)piperidine-2,6-dione]", "DC50": "10 to 100"},
      {"molecule": "C[C@@H]1Cc2c([nH]c3ccccc23)[C@@H](c2c(F)cc(N3CC4(CCN(CC(=O)N5Cc6cc7c(cc6C5)C(=O)N(C5CCC(=O)NC5=O)C7=O)CC4)C3)cc2F)N1CC(F)F", "note": "(stereo partly drawn) [E 97, 6-(2-(2-(4-((1R,3R)-2-(2,2-difluoroethyl)-3-methyl-2,3,4,9-tetrahydro-1H-pyrido[3,4-b]indol-1-yl)-3,5-difluorophenyl)-2,7-diazaspiro[3.5]nonan-7-yl)acetyl)-2-(2,6-dioxopiperidin-3-yl)-6,7-dihydropyrrolo[3,4-f]isoindole-1,3(2H,5H)-dione]", "DC50": "10 to 100"},
      {"molecule": "C[C@H]1CC2(CCN(c3ccc([C@@H]4c5ccc(O)cc5CC[C@@H]4c4ccccc4)cc3)CC2)CN1C(=O)CN1Cc2cc3c(cc2C1)C(=O)N(C1CCC(=O)NC1=O)C3=O", "note": "(mixture of isomers) [E 142, Rac-2-(2,6-dioxopiperidin-3-yl)-6-(2-((S)-8-(4-((1R,2S)-6-hydroxy-2-phenyl-1,2,3,4-tetrahydronaphthalen-1-yl)phenyl)-3-methyl-2,8-diazaspiro[4.5]decan-2-yl)-2-oxoethyl)-6,7-dihydropyrrolo[3,4-f]isoindole-1,3(2H,5H)-dione]", "DC50": "10 to 100"},
      {"molecule": "O=C1CCC(N2C(=O)c3cc4c(cc3C2=O)CN(CC(=O)N2CCC3(CC2)CCN(c2ccc(C(=C(CCCl)c5ccc(F)cc5)c5ccc(O)cc5)cc2)CC3)C4)C(=O)N1", "note": "(stereo not shown) [E 196, 6-(2-(9-(4-(4-chloro-2-(4-fluorophenyl)-1-(4-hydroxyphenyl)but-1-en-1-yl)phenyl)-3,9-diazaspiro[5.5]undecan-3-yl)-2-oxoethyl)-2-(2,6-dioxopiperidin-3-yl)-6,7-dihydropyrrolo[3,4-f]isoindole-1,3(2H,5H)-dione]", "DC50": "10 to 100"},
      {"molecule": "C[C@@H]1Cc2c([nH]c3ccccc23)[C@@H](c2c(F)cc(N3CC4(CN(C(=O)CN5Cc6cc7c(cc6C5)C(=O)N(C5CCC(=O)NC5=O)C7=O)C4)C3)cc2F)N1CC(F)F", "note": "(stereo partly drawn) [E 82, 6-(2-(6-(4-((1R,3R)-2-(2,2-difluoroethyl)-3-methyl-2,3,4,9-tetrahydro-1H-pyrido[3,4-b]indol-1-yl)-3,5-difluorophenyl)-2,6-diazaspiro[3.3]heptan-2-yl)-2-oxoethyl)-2-(2,6-dioxopiperidin-3-yl)-6,7-dihydropyrrolo[3,4-f]isoindole-1,3(2H,5H)-dione]", "DC50": "< 10"},
      {"molecule": "C[C@H]1Cc2c([nH]c3ccccc23)[C@H](c2c(F)cc(N3CC4(CCN(C(=O)CN5Cc6cc7c(cc6C5)C(=O)N(C5CCC(=O)NC5=O)C7)CC4)C3)cc2F)N1CC(F)F", "note": "(stereo in doubt) [E 85, 3-(6-(2-(2-(4-((1S,3S)-2-(2,2-difluoroethyl)-3-methyl-2,3,4,9-tetrahydro-1H-pyrido[3,4-b]indol-1-yl)-3,5-difluorophenyl)-2,7-diazaspiro[3.5]nonan-7-yl)-2-oxoethyl)-1-oxo-3,5,6,7-tetrahydropyrrolo[3,4-f]isoindol-2(1H)-yl)piperidine-2,6-dione]", "DC50": "< 10"},
      {"molecule": "O=C1CCC(N2C(=O)c3cc4c(cc3C2=O)CN(CC(=O)N2CCC[C@H](Oc3ccc([C@@H]5c6ccc(O)cc6CC[C@@H]5c5ccc(F)cc5)cc3)C2)C4)C(=O)N1", "note": "(mixture of isomers) [E 157, Rac-2-(2,6-dioxopiperidin-3-yl)-6-(2-((S)-3-(4-((1R,2S)-2-(4-fluorophenyl)-6-hydroxy-1,2,3,4-tetrahydronaphthalen-1-yl)phenoxy)piperidin-1-yl)-2-oxoethyl)-6,7-dihydropyrrolo[3,4-f]isoindole-1,3(2H,5H)-dione]", "DC50": "> 100"},
      {"molecule": "C[C@@H]1Cc2c([nH]c3ccccc23)[C@@H](c2c(F)cc(N3CCC4(CN(C(=O)CN5Cc6cc7c(cc6C5)C(=O)N(C5CCC(=O)NC5=O)C7=O)C4)C3)cc2F)N1CC(F)F", "note": "(stereo partly drawn) [E 83, 6-(2-(6-(4-((1R,3R)-2-(2,2-difluoroethyl)-3-methyl-2,3,4,9-tetrahydro-1H-pyrido[3,4-b]indol-1-yl)-3,5-difluorophenyl)-2,6-diazaspiro[3.4]octan-2-yl)-2-oxoethyl)-2-(2,6-dioxopiperidin-3-yl)-6,7-dihydropyrrolo[3,4-f]isoindole-1,3(2H,5H)-dione]", "DC50": "< 10"},
      {"molecule": "O=C1CCC(N2C(=O)c3cc4c(cc3C2=O)CN(CC(=O)N2CCC3(CC2)CC(Oc2ccc([C@@H]5c6ccc(O)cc6CC[C@@H]5c5ccccc5)cc2)C3)C4)C(=O)N1", "note": "(stereo partly drawn) [E 220, 2-(2,6-dioxopiperidin-3-yl)-6-(2-(2-(4-((1R,2S)-6-hydroxy-2-phenyl-1,2,3,4-tetrahydronaphthalen-1-yl)phenoxy)-7-azaspiro[3.5]nonan-7-yl)-2-oxoethyl)-6,7-dihydropyrrolo[3,4-f]isoindole-1,3(2H,5H)-dione]", "DC50": "> 100"}
    ]},
    {"target": "T1, ER", "assay": "ER degradation activity, in-cell western blot analysis in T47D cells", "assay_type": "cell-based", "conditions": "compounds 16 hours, Table A does not say whether T47D or MCF7, read-out: Potency (DC50)", "in_short": "as §1", "units": {"DC50": "nM"}, "values": [
      {"molecule": "O=C1CCC(N2C(=O)c3cc4c(cc3C2=O)CN(CC2COC3(CCN(c5ccc([C@@H]6c7ccc(O)cc7CC[C@@H]6c6ccccc6)cc5)CC3)C2)C4)C(=O)N1", "note": "(stereo partly drawn) [E 515, 2-(2,6-dioxopiperidin-3-yl)-6-((8-(4-((1R,2S)-6-hydroxy-2-phenyl-1,2,3,4-tetrahydronaphthalen-1-yl)phenyl)-1-oxa-8-azaspiro[4.5]decan-3-yl)methyl)-6,7-dihydropyrrolo[3,4-f]isoindole-1,3(2H,5H)-dione]", "DC50": "10 to 100"},
      {"molecule": "C[C@@H]1Cc2c([nH]c3ccccc23)[C@@H](c2cnc(N3CCC4(CC3)CC(CN3Cc5cc6c(cc5C3)C(=O)N(C3CCC(=O)NC3=O)C6=O)C4)nc2)N1CC(F)F", "note": "(stereo partly drawn) [E 474, 6-((7-(5-((1R,3R)-2-(2,2-difluoroethyl)-3-methyl-2,3,4,9-tetrahydro-1H-pyrido[3,4-b]indol-1-yl)pyrimidin-2-yl)-7-azaspiro[3.5]nonan-2-yl)methyl)-2-(2,6-dioxopiperidin-3-yl)-6,7-dihydropyrrolo[3,4-f]isoindole-1,3(2H,5H)-dione]", "DC50": "10 to 100"},
      {"molecule": "O=C1CCC(N2C(=O)c3cc4c(cc3C2=O)CN(CC(=O)N2CCC3(CC2)CCN(C(=O)c2ccc([C@@H]5c6ccc(O)cc6CC[C@@H]5c5ccccc5)cc2)CC3)C4)C(=O)N1", "note": "(stereo partly drawn) [E 495, 2-(2,6-dioxopiperidin-3-yl)-6-(2-(9-(4-((1R,2S)-6-hydroxy-2-phenyl-1,2,3,4-tetrahydronaphthalen-1-yl)benzoyl)-3,9-diazaspiro[5.5]undecan-3-yl)-2-oxoethyl)-6,7-dihydropyrrolo[3,4-f]isoindole-1,3(2H,5H)-dione]", "DC50": "> 100"}
    ]}
  ]
}
